Values of other authors in US20240197589A1, “ORAL CARE COMPOSITIONS COMPRISING GERANYLGERANIOL AND METHODS OF USE THEREOF” (AMERICAN RIVER NUTRITION, LLC, priority 2022, published 2024).

Assays:
[1] = in combination with amoxicillin, 200 mg two times per day for 5 days, following third molar removal
Staphylococcus aureus = details: S. aureus
[2] = system: Mycobacterium tuberculosis; details: M. tuberculosis, at 6.25 ug/ml
[3] = animals treated with both bisphosphonates and GG

Compound | dilution effective against Streptococcus mutans (Streptococcus mutans) | dilution exerting antibacterial effects against Porphyromonas gingivalis (Porphyromonas gingivalis) | study subjects with reduced swelling and pain [1] | concentration for optimum bactericidal effect (Staphylococcus aureus) | decrease of viable bacterial cell count (Staphylococcus aureus; 0.15-1.25 ug/ml, within two hours) | inhibition of the bacterium [2] | improved gum and extracted socket healing [3]
Bromelain | 2 mg/mL | 4.15 mg/mL | up to 70% |  |  |  | 
CC(C)=CCC/C(C)=C/CC/C(C)=C/CC/C(C)=C/CO [GG, geranylgeraniol] |  |  |  | 0.15 to 1.25 µg/mL | decreased viable bacterial cell count by a factor of two | 96% | 45-67%
